In patent US20150230462A1, “METHODS FOR IMPROVING GERMINATION AND STRESS TOLERANCE CHARACTERISTICS WITH JASMONATES” (New Biology, Inc., priority 2014, published 2015):
Entries after “also recorded” stand apart in the source; their conditions may differ.

Legend:
plants [1] = conditions: U.S. Patent Application Publication No. 2009/0082453; cited from earlier work
[2] = system: swiss chard (‘Peppermint Stick’) seeds; assay: Germinating swiss chard seeds (48 hours water soak) soaked 1 hour in MDHJ: germination at Day 6 (Example 28); format: in vivo; conditions: for Percent of Seeds Germinated at Day 6, Swiss Chard: 1 hour soak after 48 hours in water
Protocol: (§1) Seeds of wheat (Triticum aestivum ‘Liquid Sunshine’), corn (‘Sugar Pearl’) and swiss chard (‘Peppermint Stick’) were soaked in water for 48 hours, immediately followed by a 1 hour soak in no MDHJ (untreated control, or UTC), 1.5 mM MDHJ or 7.5 mM MDHJ. Seeds were then rinsed and placed between sheets of moistened paper towel and surrounded by a saran wrap tent to keep the germinating environment moist. There were 13-25 seeds for each treatment of each plant. At Day 6, seed germination was measured for each plant.

[3] = system: Seeds of corn (‘Sugar Pearl’); assay: Planted germinating corn seeds, soil sprayed with MDHJ: seedling emergence and plant height (Example 29); format: in vivo; conditions: for Percent Seedling Emergence: 12.5 ml/pot sprayed on soil two days after planting, 21 days after planting, n=16
Protocol: Seeds of corn (‘Sugar Pearl’) were soaked in water for 48 hours and subsequently planted 1-inch deep in potting soil in 6-inch pots. Two days after planting, the soil was sprayed with 12.5 ml/pot of 0 mM (UTC), 0.75 mM or 7.5 mM MDHJ. There were 8 seeds planted per pot and two pots for each treatment (n=16). Germination was recorded 21 days after planting, and plant height measured 24 days after planting.

[4] = system: wheat (Triticum aestivum ‘Liquid Sunshine’) seeds; assay: Germinating wheat seeds (48 hours water soak) soaked 1 hour in MDHJ: germination at Day 6 (Example 28); format: in vivo; conditions: for Percent of Seeds Germinated at Day 6, Wheat: 1 hour soak after 48 hours in water
Protocol: as §1

plants [5] = conditions: U.S. Pat. Nos. 8,013,226 and 8,563,839; cited from earlier work
plants [6] = conditions: U.S. Patent Application Publication No. 2009/0133166; cited from earlier work
[7] = system: Seeds of tomato (‘Crimson Carmello’); assay: Germinating tomato seeds soaked 1 hour in MDHJ: percent germination, radicle length (Example 26); format: in vivo; conditions: for Percent of Tomato Seeds Germinated, Day 5 / Percent of Tomato Seeds Germinated, Day 7: 1 hour soak of germinating seeds
Protocol: Seeds of tomato (‘Crimson Carmello’) were soaked in water for 24 hours. After 24 hours, seeds were transferred to a solution containing water only (untreated control or UTC), 0.05 mM MDHJ, or 0.5 mM MDHJ in water. There were 8-9 seeds per treatment. After soaking for 1 hour, the seeds were rinsed in water and placed between two layers of water-moistened paper towel in a clear plastic covered tray. The trays were placed at room temperature with normal daylight conditions and allowed to germinate. At day 5 and 7, the percent of germinated seeds was obtained. At days 5 and 7, radicle length was measured in tomato seedlings (no coleoptiles were showing yet). At Day 5 and 7, radicle length was measured in millimeters.

[8] = system: corn (‘Sugar Pearl’) seeds; assay: Germinating corn seeds (48 hours water soak) soaked 1 hour in MDHJ: germination at Day 6 (Example 28); format: in vivo; conditions: for Percent of Seeds Germinated at Day 6, Corn: 1 hour soak after 48 hours in water
Protocol: as §1

[9] = system: Seeds of Redina lettuce (Lechuga redina); assay: Redina lettuce seeds treated with MDHJ soak solutions with wetting agent (Example 4); format: in vivo
Protocol: Non-germinated seeds of the hybrid corn varietal “Early Sun Glow” were treated with MDHJ by soaking for 24 hours in 50 mL conical vessels in one of four treatment solutions. During the soak, the seeds spent 12 hours in typical lighting conditions and 12 hours in darkness. The four treatment solutions are set forth below in Table 5. In Table 5, COCO-WET® is a wetting agent sold by Spray-N-Grow, Inc. of Rockport, Tex.
Seeds of Redina lettuce (Lechuga redina) were treated with MDHJ according to the protocol of Example 2.

Sugar snap pea seeds = Sugar snap pea seeds treated with MDHJ soak solutions with wetting agent: seeds germinated (Example 3); format: in vivo
Protocol: Non-germinated seeds of the hybrid corn varietal “Early Sun Glow” were treated with MDHJ by soaking for 24 hours in 50 mL conical vessels in one of four treatment solutions. During the soak, the seeds spent 12 hours in typical lighting conditions and 12 hours in darkness. The four treatment solutions are set forth below in Table 5. In Table 5, COCO-WET® is a wetting agent sold by Spray-N-Grow, Inc. of Rockport, Tex. On Day 2, 4 2-inch pots were planted with three seeds each, for a total of 12 seeds per treatment. Germination of the potted seeds was measured at days 8 and 15. Sugar snap pea seeds were treated according to the procedure in Example 2. The number of seeds germinated were counted at days 8 and 15 after treatment.

[10] = system: Seeds of wheat (Triticum aestivum ‘Liquid Sunshine’); assay: Germinating wheat seeds soaked 1 hour in MDHJ: percent germination, coleoptile length (Example 27); format: in vivo; conditions: for Percent of Wheat Seeds Germinated at Day 7: 1 hour soak after 24 hours in water
Protocol: Seeds of wheat (Triticum aestivum ‘Liquid Sunshine’) were soaked in water for 24 hours. After 24 hours, seeds were transferred to a solution containing water only (untreated control or UTC), 0.05 mM MDHJ, 0.5 mM MDHJ, or 5.0 mM MDHJ in water. There were 16-20 seeds per treatment. After soaking for 1 hour, the seeds were rinsed in water and placed between two layers of water-moistened paper towel in a clear plastic covered tray. The trays were placed at room temperature with normal daylight conditions and allowed to germinate. At day 7, the percent of germinated seeds was obtained and coleoptile length was measured.

[11] = system: non-germinated seeds and resulting plants; conditions: U.S. Pat. No. 8,115,053 to Roberts et al.; treating non-germinated seeds; cited from earlier work
seed germination = conditions: Norastehnia et al., Gen. Appl. Plant Physiology, 2007; cited from earlier work

Q: Which “biotic attack” value (plants [1]) does the source give for `CCCCCC1C(=O)CCC1CC(=O)OC` (centres unmarked) [MDHJ, methyl dihydrojasmonate] here?
A: Its value is “effective in reducing biotic attack and disease in plants; also recorded: surprisingly effective at preventing biotic attack”.

Q: And the “germination” value ([2]; 1.5 mM MDHJ)?
A: Its value is “improved”.

Q: What about the “Percent of Seeds Germinated at Day 6, Swiss Chard” value ([2]; 1.5 mM MDHJ) of the same molecule?
A: Its value is 77%.

Q: And the “Percent of Seeds Germinated at Day 6, Swiss Chard” value ([2]; 7.5 mM MDHJ)?
A: The value was 58%.

Q: And the “Percent Seedling Emergence” value ([3]; 0.75 mM MDHJ)?
A: The value was 63%.

Q: And the “germination compared to the untreated control” value ([3]; 0.75 mM-treated seed)?
A: The value was “increased germination”.

Q: And the “Percent Seedling Emergence” value ([3]; 7.50 mM MDHJ)?
A: The value was 50%.

Q: And the “germination compared to the untreated control” value ([3]; 7.5 mM treated seed)?
A: The value was “no germination inhibition”.

Q: And the “growth (plant height, words)” value ([3]; FIG. 6, 24 days after planting, 0.75 mM or 7.5 mM)?
A: Its value is “did not inhibit growth”.

Q: And the “Percent of Seeds Germinated at Day 6, Wheat” value ([4]; 1.5 mM MDHJ)?
A: The value was 100%.

Q: What about the “General Observation, Wheat” value ([4]; 1.5 mM and 7.5 mM MDHJ) of the same molecule?
A: The value was “seedlings were stunted”.

Q: And the “Percent of Seeds Germinated at Day 6, Wheat” value ([4]; 7.5 mM MDHJ)?
A: The value was 100%.

Q: What about the “chlorosis and necrosis of leaf senescence” value (plants [5]) of the same molecule?
A: Its value is “can reduce the chlorosis and necrosis of leaf senescence”.

Q: And the “flowering characteristics” value (plants [6])?
A: The value was “improves flowering characteristics”.

Q: And the “Percent of Tomato Seeds Germinated, Day 5” value ([7]; 0.05 mM MDHJ)?
A: Its value is 87.5%.

Q: What about the “Percent of Tomato Seeds Germinated, Day 7” value ([7]; 0.05 mM MDHJ) of the same molecule?
A: Its value is 100%.

Q: What about the “Seed germination percentage” value ([7]; 0.5 mM MDHJ) of the same molecule?
A: Its value is “enhanced”.

Q: And the “Percent of Tomato Seeds Germinated, Day 5” value ([7]; 0.50 mM MDHJ)?
A: The value was 100%.

Q: What about the “Percent of Tomato Seeds Germinated, Day 7” value ([7]; 0.50 mM MDHJ) of the same molecule?
A: Its value is 100%.

Q: What about the “radicle length compared to untreated seeds” value ([7]; 0.5 mM MDHJ, by day 7, FIG. 4) of the same molecule?
A: The value was “increase in radicle length compared to untreated seeds”.

Q: What about the “germination” value ([8]; 1.5 mM MDHJ) of the same molecule?
A: The value was “improved”.

Q: What about the “Percent of Seeds Germinated at Day 6, Corn” value ([8]; 1.5 mM MDHJ) of the same molecule?
A: The value was 54%.

Q: And the “Percent of Seeds Germinated at Day 6, Corn” value ([8]; 7.5 mM MDHJ)?
A: Its value is 0.1%.

Q: And the “adverse effects on germination” value ([9]; 15 days after treatment, MDHJ at concentrations below 1.5 mM)?
A: The value was “no adverse effects on germination; also recorded: not to adversely affect germination”.

Q: What about the “germination benefit from MDHJ exposure” value ([9]; in vivo) of the same molecule?
A: The value was “no germination benefit was seen”.

Q: What about the “adverse effect on germination” value (Sugar snap pea seeds; MDHJ concentrations under 1.5 mM) of the same molecule?
A: The value was “not to adversely affect germination”.

Q: What about the “germination benefit from MDHJ exposure” value (Sugar snap pea seeds; in vivo) of the same molecule?
A: Its value is “no germination benefit was seen”.

Q: And the “seed germination percentage compared to the untreated control” value ([10]; 0.05 mM MDHJ)?
A: Its value is “increased seed germination percentage”.

Q: And the “Percent of Wheat Seeds Germinated at Day 7” value (“Percent … at Day 7” for short) ([10]; 0.05 mM MDHJ)?
A: The value was 95%.

Q: And the “coleoptile length” value ([10]; 0.05 mM MDHJ, FIG. 5)?
A: The value was “no decrease in coleoptile length”.

Q: And the “Percent … at Day 7” value ([10]; 0.50 mM MDHJ)?
A: The value was 53%.

Q: And the “germination and coleoptile growth” value ([10]; 0.5 mM and above, FIG. 5)?
A: The value was “inhibition of germination and coleoptile growth”.

Q: What about the “Percent … at Day 7” value ([10]; 5.00 mM MDHJ) of the same molecule?
A: Its value is 55%.

Q: What about the “coleoptiles and radicles” value ([10]; 5.0 mM treatment) of the same molecule?
A: Its value is “too short to measure”.

Q: What about the “rate of seed germination in wheat” value ([10]; concentrations below 0.5 mM, germinating wheat in paper towel) of the same molecule?
A: Its value is “beneficial for improved rate of seed germination”.

Q: Which “pest resistance in the resulting plants” value [11] does the source give for `CC/C=C\CC1C(=O)CCC1CC(=O)O` (centres unmarked) [jasmonic acid, 2-(3-oxo-2-(pent-2-enyl)cyclopentyl)acetic acid] here?
A: The value was “increases pest resistance in the resulting plants up to 10 weeks after sowing”.

Q: What does the source list for `CC/C=C\CC1C(=O)CCC1CC(=O)OC` (centres unmarked) [methyl jasmonate]?
A: seed germination (seed germination): inhibits seed germination; pest resistance in the resulting plants [11]: increases pest resistance in the resulting plants up to 10 weeks after sowing
